Source: US12485114B2, “Materials and methods useful to induce cancer cell death via methuosis or autophagy or a combination thereof” (The University of Toledo, priority 2017, dated 2025)

What was measured:
zebrafish = test: Safety in zebrafish; assay type: in vivo; conditions: 100 μM
Protocol: The safety of BAPT-27 was studied in zebrafish. BAPT-27 is safe in zebrafish even at a very high concentration of 100 μM. The fish were healthy with no changes in their morphology, swim positions, or their cardiac parameters. (FIG. 52).

TFEB-mTOR pathway = test: mTOR, Beclin-1 and LC3B-II autophagy related markers; assay type: cell-based
Text: (§1) Autophagosome and lysosomal homeostasis is governed by transcription factor EB (TFEB)—mTOR signaling pathways (TFEB-mTOR pathway). […] (FIG. 51A & FIG. 51B & FIG. 51C).

C57BL/6 mice = test: Safety studies in C57BL/6 mice; assay type: in vivo
Protocol: FIG. 53A: C57BL/6J mice (8-10 weeks old) were treated intraperitoneally with indicated concentration of BAPT-27 or vehicle (saline) for 14 days. At the end of 14 days, blood was collected in heparin-coated tubes for blood chemistry analysis using abaxis veterinary chemistry analyzer (VETSCAN vs2).
FIG. 53B: Representative immunohistochemical slides are shown for kidney, liver, heart and brain for C57BL/6mice treated intraperitoneally with vehicle (saline) or BAPT-27 at 86.6 mg/kg. The whole tissue section and 10× magnification slides are shown.

DYRK1A = target: T1, DYRK1A (Homo sapiens, UniProt Q13627); test: Kinome screening (DiscoverX) against 468 kinases; assay type: binding
T1 construct: purchased DiscoverX (KINOMEscan)
Protocol: (§2) FIG. 49A: Image showing the effect of Image was generated using TREEspot™ Software Tool and reprinted with permission from KINOMEscan®, a division of DiscoveRx Corporation, @ DISCOVERX CORPORATION 2010. Selectivity Score or S-score is a quantitative measure of compound selectivity. It was calculated by dividing the number of kinases that BAPT-27 bind to by the total number of distinct kinases tested, excluding mutant variants.

ABL1 T315I = target: T2, ABL1 T315I (Homo sapiens, UniProt P00519, T315I); test: Kinome screening (DiscoverX) against 468 kinases; assay type: binding
T2 construct: purchased DiscoverX (KINOMEscan)
Protocol: as §2

JNK1 = target: T3, JNK1 (Homo sapiens, UniProt P45983); test: Kinome screening (DiscoverX) against 468 kinases; assay type: binding
T3 construct: purchased DiscoverX (KINOMEscan)
Protocol: as §2

FLT3(D835V) = target: T4, FLT3(D835V) (Homo sapiens, UniProt P36888, D835V); test: Kinome screening (DiscoverX) against 468 kinases; assay type: binding
T4 construct: purchased DiscoverX (KINOMEscan)
Protocol: as §2

β-tubulin = β-tubulin expression and microtubules dynamics; assay type: cell-based; set-up: β-tubulin expression levels: dose or concentration left out as unconfirmed
cancer cells = test: Vacuoles formation and cell death with necroptosis inhibitor necrostatin-1; assay type: cell-based; conditions: necrostatin-1 up to 30 μM
Protocol: BAPT-27 induces a type of death that is also independent of necrosis or necroptosis. The vacuoles formation and cell death was not inhibited by the addition of necrostatin-1, a necroptosis inhibitor, even at high concentrations (up to 30 μM).
BAPT-27 induces a type of death that is independent of necrosis or necroptosis. The vacuoles formation and cell death was not inhibited by the addition of necrostatin-1, a necroptosis inhibitor, even at high concentrations (up to 30 μM). (FIG. 44).

[1] = system: NSCLC cells resistant to apoptosis; test: Activity in apoptosis-resistant NSCLC cells; assay type: cell-based
Text: (FIG. 46). NSCLC cells resistant to apoptosis are also sensitive to the activities of BAPT-27.

[2] = system: HCT116 colon cancer cells; test: Colony formation assay; assay type: cell-based
Protocol: The cytotoxic efficacy of BAPT-27 was also confirmed by colony formation assay. Colony formation assay was used to determine the long-term capacities of the compound to inhibit cell proliferation and viability. The cells were treated for 2 or 3 days and allowed to grow in compound free medium for up to two weeks. […] It was also observed that a higher concentration of BAPT-27 was needed to reduce the colony formation at 48 h compared to longer treatment (72 h). (FIG. 28A).
The cells were treated for 2 or 3 days and allowed to grow in compound free medium for up to two weeks. […] The number of colonies formed/concentration at each time point is shown in the bar graph in FIG. 28B.

[3] = system: colon, pancreatic, ovarian, lung, and prostate cancer cell lines; test: Vacuole accumulation in cancer cell lines; assay type: cell-based
Text: The vacuoles are originated from macropinocytosomes as confirmed by extracellular fluid phase tracers. Vacuolization has been described previously as methuosis. However, the vacuoles induced here combine the characteristics of methuosis, autophagy, enhanced lysosomal activity, and other distinct characteristics.

[4] = system: normal epithelial colon cells (CRL-1459); test: Morphological assessment of vacuolization in normal cells; assay type: cell-based; conditions: CRL-1459 normal cells
Text: The methuophagy inducing activities of BAPT-27 were also prominent in different colon cancer cell lines with different genetic profiles. […] (FIG. 42). However, the vacuoles formation was not prominent in normal epithelial colon cells (CRL-1459). (FIG. 42).

[5] = system: Transcription factor EB (TFEB)— associated lysosomal and autophagy genes; test: RNA-seq analysis of TFEB-associated lysosomal and autophagy genes; assay type: cell-based; conditions: HCT-116, 10 μM, 6 h
Text: as §1

[6] = system: autophagic signaling pathways; test: Autophagy markers and autophagy inhibitors (acridine orange, LC3B, 3-MA, chloroquine); assay type: cell-based
Text: BAPT-27 induced vacuoles that combine both methuosis and autophagy characteristics. […] The author mechanism involved in this non-conventional cell death mechanism is a special type of […] that has been termed methuosis. The treatment of cells by BAPT-27 caused the displacement of the cytoplasm by vacuoles derived from macropinosomes. At early time points, the vacuoles are small in size. The small vacuoles then increase in number, and then fuse with each other over time forming larger vacuoles that cover the whole cytoplasm. Eventually, this causes a disturbance of the cell membrane and burst of the cells, release of fluids, detachment of cell, and death. […] Accordingly, alteration in both autophagic and methuosis mechanisms are involved in the BAPT-27 cell death process.
Without wishing to be bound by theory, it is believed that the mechanism by which BAPT-27 is produces its activities is due to alteration in key signaling pathways and several cellular events: (1) significant activation of macropinocytosis (FIGS. 32-33), and (2) significant alteration in autophagic signaling resulting in the accumulation of autophagic markers such as LC3 II and acridine orange (FIG. 37).
At 6 h treatment, the vacuoles were tiny and smaller in size in combination compared to BAPT-27 alone. (FIG. 48). […] (FIG. 48).

lysosomes = test: Lysotracker red dye accumulation; assay type: cell-based

T3 sequence (P45983 whole entry): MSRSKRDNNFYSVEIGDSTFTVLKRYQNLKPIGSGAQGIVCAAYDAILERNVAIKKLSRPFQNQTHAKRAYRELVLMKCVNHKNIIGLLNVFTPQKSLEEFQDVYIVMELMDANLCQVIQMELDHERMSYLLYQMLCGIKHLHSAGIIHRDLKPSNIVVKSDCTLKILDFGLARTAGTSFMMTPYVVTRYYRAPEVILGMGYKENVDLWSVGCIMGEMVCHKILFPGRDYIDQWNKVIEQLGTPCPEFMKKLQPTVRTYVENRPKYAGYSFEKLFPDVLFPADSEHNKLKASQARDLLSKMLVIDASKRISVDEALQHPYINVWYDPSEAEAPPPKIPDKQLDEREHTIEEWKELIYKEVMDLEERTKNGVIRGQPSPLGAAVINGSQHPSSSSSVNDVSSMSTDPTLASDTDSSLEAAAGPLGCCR

Sc1nnc(-c2ccncc2)n1/N=C/c1c[nH]c2ccccc12 [BAPT-27, 4-(((1H-Indol-3-Yl)Methylene)Amino)-5-(Pyridin-4-Yl)-4H-1,2,4-Triazole-3-Thiol]
changes in morphology, swim positions, or cardiac parameters (zebrafish): no changes
safety in zebrafish (zebrafish): safe
Beclin-1 level (TFEB-mTOR pathway): increased
LC3B-II level (TFEB-mTOR pathway): increased
mTOR level (TFEB-mTOR pathway): significantly downregulated
safety in mice (C57BL/6 mice; 86.6 mg/kg given intraperitoneally): safe
behavioral or phenotypic toxicity (C57BL/6 mice; up to 14 days): no behavioral or phenotypic toxicity
inhibitory potency (DYRK1A): shows inhibitory potency
inhibitory potency (ABL1 T315I): shows inhibitory potency
inhibitory potency (JNK1): shows inhibitory potency
inhibitory potency (FLT3(D835V)): shows inhibitory potency
β-tubulin expression levels (β-tubulin): no significant change
microtubules dynamics (β-tubulin; 24 h): significant disturbance
inhibition of vacuoles formation and cell death by necrostatin-1 (cancer cells): not inhibited
sensitivity to the activities of BAPT-27 [1]: sensitive
colonies number and size ([2]; HCT116, 48 h and 72 h, especially after 72 h treatment): significant inhibition in the colonies number and size
colony formation ([2]; treated two and three days, then compound free medium up to two weeks): significantly inhibited colony formation
accumulation of fluid filled-cytoplasmic vacuoles [3]: induces the rapid accumulation of extensive fluid filled-cytoplasmic vacuoles
vacuoles formation [4]: not prominent
expression of TFEB-associated lysosomal and autophagy genes [5]: upregulated
LC3B cleavage and LC3B loci at the borders of the vacuoles [6]: induced the cleavage of LC3B
acridine orange in vacuoles (activated acidic compartments) [6]: accumulation of acridine orange
inhibition of vacuoles formation or cytotoxic effects by autophagy inhibitors 3-MA and chloroquine [6]: did not inhibit
block of vacuoles formation by 3-methyl adenine ([6]; 3-MA 300 μM, BAPT-27 10 μM, 24 h and 72 hr): does not block
effect of chloroquine on vacuoles formation ([6]; CQ 5 μM, BAPT-27 10 μM, 6 h): delay of vacuoles formation
effect of chloroquine on vacuoles regaining normal size ([6]; CQ 5 μM, BAPT-27 10 μM, 24 h): could not prevent
lysotracker red dye inside the formed vacuoles (lysosomes): significant accumulation
